Data on three molecules can be found in patent US20130102081A1, “Detection and Characterization of Protein Degradation, Protein Degradation Modulation and Protein Degradation Modulators” (priority 2011, published 2013).

This assay has as its target T1, trypsin (Bos taurus, UniProt P00760).
T1 construct: gene PRSS1
T1 sequence (P00760 24-246): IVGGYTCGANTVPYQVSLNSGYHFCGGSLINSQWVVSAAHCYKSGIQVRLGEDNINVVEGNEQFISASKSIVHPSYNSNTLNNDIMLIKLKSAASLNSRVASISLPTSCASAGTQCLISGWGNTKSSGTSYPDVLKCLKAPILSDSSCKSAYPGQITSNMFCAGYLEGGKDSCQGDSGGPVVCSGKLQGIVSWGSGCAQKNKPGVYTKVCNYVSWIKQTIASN
The assay can be described thus: EMR spectroscopy of spin-labeled BSA degradation by the protease trypsin, with and without modulators. Conditions: EMR peak height versus time, compared with protease alone. Format: biochemical. The text has this:
The spin label is attached to a protein and the control or un-degraded protein EMR spectrum recorded. Degradation of the protein by any degradation mechanism creates products with predictably different angular mobility than that of the control. […] Degradation is further characterized through quantitative analysis of the product and reactant subpopulations. Modulation of that degradation, regardless of the mechanism of modulation, can be expressed in a variety of ways, only one of which is an alteration in concentration of the degradation subpopulations. For example, inhibition of degradation is expressed by a reduction in concentration of relatively mobile subpopulation(s), degradation promotion by an increase in the mobile subpopulation. Chemical, biochemical and biological entities are readily tested for their potential as modulators.
Shown are EMR spectra of spin-labeled bovine serum albumin (BSA, spin label attached to BSA under conditions which favor attachment to a sulfhydryl). Key features of the intact protein's spectrum are denoted by the numbers 1 and 5. At 7, 21 and 40 minutes (spectra 2, 3 and 4 respectively) following the addition of the protease, trypsin, a second, more mobile, product population appears, characterized by three, relatively sharp peaks superimposed on the spectrum of the intact protein. Protein degradation is clearly expressed with products expressing more rapid angular mobility than reactants. Both reactant and product subpopulations are apparent in the spectra with the growth of the product population matched by a concomitant loss of reactants. Subpopulation spectra are amenable to further analyses in accord with practices associated with the selected observation method.
Shown are four EMR spectra (6, 7, 8, 9) for conditions identical to those in FIG. 1 of 5 with the exception that trypsin inhibitor is present. The presence and action of the modulator is clear and unambiguous.
Shown is the concentration of products, as reflected in the heights of the rightmost peaks labeled 1, 2, 3, and 4 in FIG. 1 of 5, versus time. […]
Turning to `Cc1c(O)cccc1C(=O)N[C@@H](CSc1ccccc1)[C@H](O)CN1C[C@H]2CCCC[C@H]2C[C@H]1C(=O)NC(C)(C)C` [Nelfinavir], the “modulation of protein degradation (time course of appearance of the mobile product subpopulation)” value (“modulation of protein degradation” below) was “promotion of degradation”.

Consider `CC(C)C[C@H](NC(=O)[C@@H](NC(=O)N[C@@H](Cc1ccccc1)C(=O)O)[C@@H]1CCN=C(N)N1)C(=O)N[C@H](C=O)Cc1ccccc1` [chymostatin], for which the “modulation of protein degradation” value is reported as “Modulation of protein degradation is clear”. leupeptin hemisulfate: the “modulation of protein degradation” value is on record as “Modulation of protein degradation is clear”.
